Target: T1, Endothelial lipase (Homo sapiens, UniProt Q9Y5X9)
T1 construct: made in house; host or cells: CHO, HEK293 (recombinant cell lines; concentrated conditioned medium used as enzyme solution)
T1 sequence (Q9Y5X9 21-500): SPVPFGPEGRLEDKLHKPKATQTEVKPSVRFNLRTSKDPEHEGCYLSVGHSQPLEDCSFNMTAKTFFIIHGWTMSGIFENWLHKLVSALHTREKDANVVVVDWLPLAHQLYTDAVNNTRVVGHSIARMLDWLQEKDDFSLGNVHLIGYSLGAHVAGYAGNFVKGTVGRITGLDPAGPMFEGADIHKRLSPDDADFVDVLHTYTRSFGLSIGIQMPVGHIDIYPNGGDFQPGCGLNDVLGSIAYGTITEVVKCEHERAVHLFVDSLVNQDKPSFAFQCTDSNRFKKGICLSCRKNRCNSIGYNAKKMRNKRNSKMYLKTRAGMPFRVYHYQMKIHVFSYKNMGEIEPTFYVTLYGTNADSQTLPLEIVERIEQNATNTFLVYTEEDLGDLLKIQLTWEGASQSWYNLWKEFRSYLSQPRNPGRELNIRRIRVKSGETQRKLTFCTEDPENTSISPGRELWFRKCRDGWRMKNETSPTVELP
Experiment: EL inhibition assay
Format: biochemical
Details: values marked * are IC50 values of a mixture of the indicated regioisomers; 37° C., 60 minutes, Bodipy phospholipid substrate
Procedure: The activity of the compounds of the invention of the formula I was tested in the following enzyme assay system: […]
Endothelial lipase is released as secretory protein in high concentration into cell culture medium (conditioned medium) by recombinant cell lines (CHO, HEK293). This is employed as enzyme solution after concentration.
The phospholipase-specific substrate 1,2-bis(4,4-difluoro-5,7-dimethyl-4-bora-3a,4a-diaza-s-indacene-3-undecanoyl)-sn-glycero-3-phosphocholine, (manufacturer Molecular Probes) is used to characterize the enzymatic activity of endothelial lipase and the effect of inhibitors. Hydrolysis of the A1 ester linkage of this phospholipid by the enzyme liberates the fluorescent dye Bodipy which can be detected after separation by thin-layer chromatography on an HPTLC plate (silica gel 60, Merck) or directly in the reaction vessel by measuring the fluorescence.
The substrate solution is prepared by taking up 100 μg of 1,2-bis(4,4-difluoro-5,7-dimethyl-4-bora-3a,4a-diaza-s-indacene-3-undecanoyl)-sn-glycero-3-phospho-choline (manufacturer Molecular Probes), 2.4 mg of tripalmitin (Sigma) and 7.9 mg of DOP—choline (1,2-dioleoyl-sn-glycero-3-phosphocholine) in 393 μl of chloroform and then transferring 157 μl into a fresh reaction vessel. After evaporation of the solvent, the lipid mixture is dissolved in 4 ml of 200 mM TRIS-HCl, 150 mM sodium chloride, pH=7.4, by sonication twice. The subsequent enzymic reaction takes place at 37° C. for 60 minutes. For this purpose, 45 μl of the substrate solution are incubated with 1 μl of inhibitor of appropriate concentration (dissolved in DMSO, pure DMSO solution is used as control) and 5 μl of enzyme solution (conditioned medium). Then 3 μl of the assay mixture are loaded onto an HPTLC plate (silica gel 60, Merck), and the liberated fluorescent dye is separated for detection with an eluent (diethyl ether:petroleum benzene:acetic acid [78:22:1]). After evaporation of the eluent, the plate is read in a fluorescence scanner. An increased release of the fluorescent dye in the uninhibited reaction is to be observed as a measure of the enzymic activity.
The enzymatic activity is reduced as a function of the inhibitor concentration used, and the inhibitor concentration at which a half-maximum enzymic activity is observed is called IC50.

SMILES | IC50 [nM]
Cc1cccc(CNC(=O)n2nnc3ccccc32)c1 [Example 1] | 20
O=C(NCc1ccc(-c2cccs2)s1)n1nnc2ccccc21 [Example 15] | 520
Cc1ccsc1CNC(=O)n1nnc2ccccc21 [Example 9] | 80
O=C(NCc1ccc(Cl)cc1)n1nnc2ccccc21 [Example 28] | 440
C[C@H](NC(=O)n1nnc2ccccc21)c1ccccc1 [Example 36] | 710
C[C@@H](NC(=O)n1nnc2ccccc21)c1ccccc1 [Example 23] | 31
N#Cc1ccc2sc(CNC(=O)n3nnc4ccccc43)cc2c1 [Example 10] | 510

Reference: patent US7897625B2, “Carbamoylbenzotriazole derivatives as inhibitors of lipases and phospholipases” (Sanofi-Aventis, priority 2005, dated 2011)
